Data: patent US5935952A, “Quinolone- or naphthylidone-carboxylic acid derivates or their salts” (Toyama Chemical Co., LTD., priority 1994, dated 1999)
In brackets after ≈: the same amount, converted by molar mass. Where two headings read alike, the source gives them in different places.

How the values were obtained:
Format in all cases: cell-based
S. aureus FDA 209P = test: Antibacterial activity (MIC, agar dilution, standard method of Japan Society of Chemotherapy) against S. aureus FDA 209P; settings: Staphylococcus aureus, FDA209P
Description: (§1) According to the standard method of Japan Society of Chemotherapy [CHEMOTHERAPY, vol.

E. coli NIHJ JC-2 = test: Antibacterial activity (MIC, agar dilution, standard method of Japan Society of Chemotherapy) against E. coli NIHJ JC-2; settings: Escherichia coli
Description: as §1

S. aureus F-597 = test: Antibacterial activity (MIC, agar dilution, standard method of Japan Society of Chemotherapy) against S. aureus F-597**; settings: Staphylococcus aureus; S. aureus F-597, MRSA (methicillin-resistant S. aureus); Mueller Hinton agar, 37° C., 20 hours, 10^6 cells/plate
Description: as §1
**: MRSA (methicillin-resistant S. aureus)

S. aureus F-137 = test: Antibacterial activity (MIC, agar dilution, standard method of Japan Society of Chemotherapy) against S. aureus F-137*; settings: Staphylococcus aureus, F137; S. aureus F-137, β-lactamase-producing bacteria; Mueller Hinton agar, 37° C., 20 hours, 10^6 cells/plate
Description: as §1
*: β-lactamase-producing bacteria

Structure (SMILES)	MIC (S. aureus FDA 209P; 20 h)	MIC (E. coli NIHJ JC-2; NIHJJC2, 20 h)	MIC (S. aureus FDA 209P; S. aureus FDA 209P, Mueller Hinton agar, 37° C., 20 hours, 10^6 cells/plate, read-out: MIC)	MIC (S. aureus F-597)	MIC (E. coli NIHJ JC-2; NIHJJC2, E. coli NIHJ JC-2, Mueller Hinton agar, 37° C., 20 hours, 10^6 cells/plate, read-out: MIC)	MIC (S. aureus F-137)
O=C(O)c1cn(C2CC2)c2cc(N3CCNCC3)c(F)cc2c1=O [Compound B, 1-cyclopropyl-6-fluoro-7-(1-piperazinyl)-1,4-dihydro-4-oxoquinoline-3-carboxylic acid, reference compound]	0.2 µg/mL (≈ 0.604 µM)	≤ 0.05 µg/mL				
Cc1c(-c2ccc3c(c2)CNC3)c(F)cc2c(=O)c(C(=O)O)cn(C3CC3)c12 [Compound A, 1-cyclopropyl-6-fluoro-7-(isoindolin-5-yl)-8-methyl-1,4-dihydro-4-oxoquinoline-3-carboxylic acid]			≤ 0.05 µg/mL	≤ 0.05 µg/mL	≤ 0.05 µg/mL	≤ 0.05 µg/mL
